Results published in patent US12503426B2, “Synthetic derivatives of oleoyl-lysophosphatidylinositol (oleoyl-LPI) and uses thereof” (LIPOVEXA SRL, priority 2017, dated 2025).

Legend:
[1] = test system: colonic cells of the GI tract obtained from guinea pig; experiment: Ex vivo GLP-1 biosynthesis and secretion, guinea pig GI tract cells; format: cell-based
Experimental: To test for this, a pregnant guinea pig was anesthetized with isoflurane and sacrificed via intra-cardial injection of pentobarbital. Colon and rectum were quickly collected and intraluminal content washed out with ice-cold HBSS. After a thorough cleansing from the faecal material, and gentle scraping of the internal mucosa, the tissue was minced into 3 to 5-millimetre pieces and resuspended into 50 ml of ice cold HBSS. Pellet was spun down and washed again in 50 ml of ice-cold HBSS. Supernatant was carefully removed, and the epithelial fragments were then resuspended for 30 minutes at 37° C. into a 5 ml solution of HEPES 25 mM, collagenase-P 1 mg/ml in HBSS, pH 7.4 at 37° C.
The tissue was then pelleted and resuspended further for about 30 to 40 additional minutes at 37° C. within a 10 ml solution of 1 mg/ml collagenase-P as above.
After the digestion, about 40 ml of pre-warmed DMEM complete media was added (FBS 10%, glucose 4.5 g/L, glutamine 4 mM, sodium pyruvate 1 mM, HEPES 25 mM, sodium bicarbonate 3.7 g/L, Pen/Strep 1× and Ciprofloxacin 10 μg/ml pH 7.4 at 37° C.). Crypts and individual cells were isolated with a […] nylon strainer, spun down at 200 g for 5 minutes, resuspended into 10 ml of DMEM complete media and plated into 20 wells of a 24-well plate coated with a 3D gel of 3 mg/ml Matrigel (BD, Biosciences, Oxford, UK). After one day of incubation at 37° C. 5% CO2 in a humidified incubator, cells were washed with 500 μl of warm HBSS, and treated with 250 μl DMEM serum free (Complete medium without FBS) additioned with KR-62436 10 μg/ml and individually the following drugs or compounds: Forskolin and IBMX (20 μM each), oleoyl-LPI, and the two oleoyl-LPI analogs and/or derivatives ps297b (prepared as described in example 13) and ps316a (prepared as described in example 22) were all tested in quadruplicate at 20 μM.
After a 2-hour long incubation at 37 C 5% CO2, the supernatants were collected on ice, and quickly stored at […]. Active GLP-1 levels (7-37 amide and 7-36) were quantified on 50 μl of supernatant with an ELISA commercial kit (EMD Millipore). DMSO was used as a negative control, the combination of Forskolin and IBMX was included as positive control activators GLP-1. GLP-1 levels measured were standardized against the DMSO control.
The EC50 levels each one of oleoyl-LPI, compound ps297b and compound ps316a were also measured in quadruplicates at the conclusion of the 2 hour incubation. Guinea pig cells obtained as described above were also incubated with […] in quadruplicates and subjected to 2-hour long incubation at 37 C 5% CO2 as described above and EC50 levels measured.

Danio rerio larvae = experiment: Zebrafish toxicity test; format: in vivo; details: two-days old larvae treated for 3 days; heartbeat, movement, teratogenicity; preliminary experiment
Description: About two-days old Danio rerio larvae may be dechorionated and treated for about 3 days with increasing amount of any synthetic compound of formula I or salt or solvate thereof of this invention. The cardiotoxicity effect of the compound or salt or solvate may be assessed by measuring the heartbeat, the movement, and teratogenicity (hatching rate, mortality rate (LD50). The experiment may be repeated for three times or more times e.g., with about 10 larvae per concentration tested.
Two-days old Danio rerio larvae were dechorionated and treated for 3 days with increasing amount of a synthetic compound of formula I such as ps297b.

NCI-H716 cells = experiment: GLP-1 secretion in NCI-H716 cells, in vitro human L cells model (Examples 30-33); format: cell-based
Experimental: To evaluate the GLP-1 biosynthesis and secreting capabilities of the compounds of formula I in vitro using the human-derived cell line NCI-H716, 50,000 such cells were seeded per well of a 24-well plate pre-coated with a thin layer of Matrigel (0.15 mg/ml) in RPMI complete (RPMI additioned with FBS 10%, Glucose 2 g/L, Glutamine 4 mM, Sodium Bicarbonate 2 g/L, Pen/Strep 1× pH 7.4 at 37° C.) and incubated at 37° C. in humidified 5% CO2 atmosphere to induce endocrine differentiation.
After 48 hours, media was withdrawn and cells washed once with warm HBSS (Hank's balanced salt solution) and then incubated in duplicate for 2 hours with the different dilutions of the oleoyl-LPI, OEA, DMSO (as negative control), a test compound of formula I, and KR-62436 10 μg/ml, all dissolved in RPMI serum free (RPMI complete without FBS) at 37° C. in humidified 5% CO2 incubator. Supernatant were quickly collected on ice and stored at −80° C. before quantification of GLP-1 with a commercial ELISA (EMD Millipore) specific for active-GLP-1 species.
To evaluate the GLP-1 biosynthesis and secreting capabilities of the compounds of formula I in vitro using the human-derived cell line NCI-H716, 50,000 such cells were seeded per well of a 24-well plate pre-coated with a thin layer of Matrigel (0.15 mg/ml) in RPMI complete (RPMI additioned with FBS 10%, Glucose 2 g/L, Glutamine 4 mM, Sodium Bicarbonate 2 g/L, Pen/Strep 1×pH 7.4 at 37° C.) and incubated at 37° C. in humidified 5% CO2 atmosphere to induce endocrine differentiation.
After 48 hours, media was withdrawn and cells washed twice with pre-warm HBSS (Hank's balanced salt solution) and then incubated in duplicate for 2 hours with 250 μl of 20 μM of either oleoyl-LPI, DMSO (as negative control) or a test compound of formula I, and […], all dissolved in RPMI serum free (RPMI complete without FBS) at 37° C. in humidified 5% CO2 incubator. Compounds of formula I tested were ps297b, ps316a, ps318a, ps319a, ps321a and ps323.
Supernatant were quickly collected on ice and stored at −80° C. before quantification of GLP-1 with a commercial ELISA (EMD Millipore) specific for active-GLP-1 species (e.g., GLP-1 (7-36) amide) and […]).
Compounds of formula I were tested for GLP-1 secretion in NCI-H716 cells essentially as describe in examples 30 and 31 above. EC50 GLP-1 secretion readout results were standardized relative to maximum GLP-1 secretion obtained with oleoyl-LPI. EC50 readout results were rated as low GLP-1 secretion activity (0-20% of maximum GLP-1 secretion achieved with oleoyl-LPI), moderate (21-79% of maximum GLP-1 secretion achieved with oleoyl-LPI), and high GLP-1 activity (80% and more of maximum GLP-1 secretion achieved with oleoyl-LPI). Table 3 also outlines the R1, R2 and R3 substituents of the compounds of formula I.

wild type mice = experiment: Oral Glucose GLP-1 secretion test; format: in vivo; details: oral gavage 20 mg/kg, samples 2 minutes post glucose load, N=3
Experimental: Active GLP-1 levels were measured in samples collected 2 minutes post glucose load. N=3
In a slight variation on the above method GLP-1 measurement in mice can be carried out by Peripheral GLP-1 stimulation and measurement in C57bl/6J mice. After 6 hours of fasting, the mice are weighed, and drug volumes are calculated. […] At 2 minutes post-glucose gavage, a blood sample is collected from the submandibular vein into an EDTA coated prechilled tube containing a panel of protease inhibitors. The plasma is separated by spinning at 1,500 g for 20 minutes at 4 C. the plasma is then collected and snap frozen on dry ice and store at −20 C before proceeding with hormone quantification. For hormone quantification the samples are thawed and total GLP-1 levels are quantified, GLP1(7-36)amide+GLP-1(9-36)amide, in 20 μL of plasma with the commercial ELISA kit from Millipore EZGLP1T-36K. This method is also described in Windelov J A et al Diabetologia. […]
Mice were sampled at about 2 minutes post glucose load, 20 μl of arterial blood may be sampled in K3-EDTA and KR-62436 containing tubes to collect plasma and samples are quickly store at −80° C. Plasma samples of 4 to 6 animals may be pool together and assayed to quantify the levels of active GLP-1 (such as GLP-1 (7-36)amide) using commercially available ELISA kits. […] Active GLP-1 levels were measured in samples collected 2 minutes post glucose load. […]

Compound: CCCCCCCC/C=C\CCCCCCCC(=O)Nc1ccc(-c2nnn[nH]2)cc1 [ps297b]
- GLP-1 biosynthesis and secretion ex vivo ([1]; 20 μM, 2 hours, standardized against DMSO control): stimulated biosynthesis and secretion
- stability after incubation ex vivo ([1]; 2 hours incubation ex vivo): remained stable after 2 hours incubation ex vivo
- EC50 ([1]; Cavia porcellus, ex vivo incubation 2 hours, quadruplicates): 30 µM
- concentration with no sign of toxicity (Danio rerio larvae): up to 200 micromolar
- GLP-1 biosynthesis and secretion from NCI-H716 L cells (NCI-H716 cells; 20 μM, 2 hours, normalized against DMSO vehicle control): able to mediate GLP-1 biosynthesis and secretion
- level of GLP-1 biosynthesis and secretion compared with oleoyl-LPI (NCI-H716 cells; NCI-H716 cells, 20 μM, 2 hours): comparable to that of oleoyl-LPI
- GLP-1 secretion Activity relative to oleoyl-LPI (NCI-H716 cells; NCI-H716 cells, standardized relative to maximum GLP-1 secretion obtained with oleoyl-LPI): High (high GLP-1 activity (80% and more of maximum GLP-1 secretion achieved with oleoyl-LPI))
- activity in inducing and/or increasing secretion of GLP-1 from cells of the GI tract (NCI-H716 cells; summary statement, compared with oleoyl-LPI): equal to or higher than oleoyl-LPI
- GLP-1 release (active GLP-1 levels) (wild type mice): increasing GLP-1 release
